From US20230333087A1, “METHODS FOR MONITORING PATIENT RESPONSE TO TREATMENT OF RETINAL OXIDATIVE DISEASES” (BioJiva LLC, priority 2022, published 2023) come the findings set out here.

Where only a bound is given, the exact number is not on record here.

Holding throughout (format): in vivo, C57BL/6J mice
Assay [1] relates to carboxyethyl pyrrole (CEP). Kind of assay: Immunolabelling for CEP on cryosections. Particulars: 1 week after injection, 4 weeks diet. The procedure: Iron-catalyzed peroxidation of phospholipids containing DHA leads to unique carboxyethyl pyrrole (CEP) adducts not formed from any other PUFA. CEP has been detected by IHC in human AMD eyes and mouse retinas, including those from mice receiving IVT iron. To test whether D-DHA could protect against iron-induced CEP formation, mice were fed with D-DHA or DHA for 4 weeks prior to IVT injection of iron or control saline.
Cryosections were prepared at 4h and 1 week after injections. Co-labelling for CEP and rhodopsin was conducted to assess and localize CEP. […] At 1 week after injection, immunolabelling for CEP localized to RPE and infiltrating myeloid cells in IVT iron injected eyes of DHA fed mice, likely originationg from phagocytosed oxidized photoreceptor outer segments (FIG. 8B). Immunolabelling for CEP was undetected in D-DHA fed mice. […] Quantification of pixel density for CEP and L-Ft label was conducted using ImageJ software (FIGS. 8F and 8G), and quantitatively verified the results described above.
Immunofluorescence on cryosections was conducted as described previously. […] Images were acquired with an epifluorescence microscope (Nikon 80i microscope, Nikon, Tokyo, Japan), and analyzed using NIS-Elements (Nikon).

Assay [2] has as its system iron-induced retinal autofluorescence and degeneration. Nature of the assay: Iron-induced retinal autofluorescence and degeneration, cSLO and OCT imaging 1 week after intravitreal iron. The procedure: To evaluate the protective effect of 0.25% D-DHA diet, confocal scanning laser ophthalmoscopy (cSLO) and optical coherence tomography (OCT) were employed for in vivo imaging at 1 week after injections. For the cSLO imaging, both blue autofluorescence (BAF) and near-infra autofluorescence (IRAF) were performed.
(§1) Adult male wild-type C57BL/6J mice (Stock No.000664, Jackson Labs, Bar Harbor, ME, USA) were housed in standard conditions under cyclic light (12 h:12 h light-dark cycle). Mice had ad libitum access to water and food. Beginning at 2 mo of age, mice were placed on the AIN93G diet described above, supplemented with 0.25% D-DHA or DHA (control diet) for 1 week, 2 weeks, 3 weeks, or 4 weeks prior to the intravitreal injection. Mice were given an intravitreal injection of 1 µl 0.5 mM ferric ammonium citrate diluted in 0.9% NaCl (saline) (MP Biomedicals LLC, Santa Ana, CA) or
1 µl of saline as control. Intravitreal injections were performed as previously described ^54. Mice were continued on respective diet until their final evaluation. All housing and procedures were performed according to the NIH Guide for the Care and Use of Experimental Animals and approved by the University of Pennsylvania Animal Care and Use Committee.
(§2) Mice were given general anesthesia and placed on a platform. Pupils were dilated with 1% tropicamide saline solution (Akorn, Inc., Lake Forest, IL). Optical coherence tomography (OCT) imaging was performed for visualization of the retinal structure by using a Bioptigen
Envisu (R2200, Bioptigen Inc., Durham, NC, USA) coupled to a broadband LED light source (T870-HP, Superlum Diodes, Ltd, Ireland). Confocal scanning laser ophthalmoscopy (cSLO) (Spectralis HRA, Heidelberg Engineering, Franklin, MA, USA) was used for visualization of retinal AF using BluePeak™ or simply blue AF (488 nm excitation) and near-infrared AF (787 nm excitation) imaging modes.

The subject of assay [3] is iron-induced geographic atrophy. Nature of the assay: Iron-induced geographic atrophy development, imaging 4 weeks after injection. Particulars: 4 weeks diet before and 4 weeks after iron injection.
Description: To evaluate whether D-DHA could protect against geographic atrophy in this model, mice were continued on respective diets for 4 weeks after iron or saline injection. […] This corresponded to photoreceptor (white arrows) and RPE degeneration (black arrows) in OCT scans (FIG. 10C). […] Taken together, […] retinal D-DHA provided long-term protection against the geographic atrophy development induced by iron.
as §1, §2
Envisu (R2200, Bioptigen Inc., Durham, NC, USA) coupled to a broadband LED light source (T870-HP, Superlum Diodes, Ltd, Ireland). […]

For the molecule `[2H]C([2H])(/C=C\CC)/C=C\C([2H])([2H])/C=C\C([2H])([2H])/C=C\C([2H])([2H])/C=C\C([2H])([2H])/C=C\CCC(=O)OCC` [D-DHA, 6,6,9,9,12,12,15,15,18,18-D10-(4Z,7Z,10Z,13Z,16Z, 19Z)-docosa 4,7,10,13,16, 19-hexaenoic acid ethyl ester], the “immunolabelling for CEP” value in assay [1] is given as “undetected”. Also, the “iron induced retinal AF (BAF and IRAF cSLO images)” value in assay [2] (0.25% D-DHA diet for 1, 2, 3 and 4 weeks before iron injection, 1 week after injection) is on record as “dose-dependent reduction”. Also, the “protective effects (reduction of AF area)” value in assay [2] (at >30% retinal D-DHA substitution levels) is listed as over 50%. In addition, the “retinal structure in OCT scans” value in assay [2] (fed D-DHA for 4 weeks, 1 week after iron injection) is “complete protection”. Moreover, the “protection against iron-induced retinal damage” value in assay [2] (fed D-DHA for 4 weeks, >50% substitution in neural retina) was “nearly complete protection”. Moreover, in assay [3], the geographic atrophy development entry is on record as “fully protected”.
